# Measured values: US20230027864A1, “COMPOSITIONS AND METHODS FOR DELIVERY OF AGENTS TO IMMUNE CELLS” (ModernaTX, Inc., priority 2018, published 2023)
# Test system: T cells
# Assay: Additional LNPs: T cell transfection in vitro, mOX40L mRNA, labeled LNPs
# Format: cell-based, human
# Details: ionizable lipid component, FIG. 43
# Procedure: In this Example, additional LNPs comprising various lipid components and at different ratios were made and tested for their ability to transfect T cells in vitro. Transfection was performed as in Example 5 using LNPs encapsulating an mRNA encoding mouse OX40L. LNPs were labeled and the results were determined for the mean % cells with LNPs associated, the mean % cells expressing mOX40L and the % of LNP-associated cells expressing mOX40L, as described hereinbefore.
row,SMILES,"immune cell delivery potentiating ability in T cells, amino lipid panel"
1,CCCCCCCCC(CC)OC(=O)CCCCCN(CCCCCCCC(=O)OC(CCCCCCCC)CCCCCCCC)CCCNc1c(NC)c(=O)c1=O (stereo not shown) [Compound I-350],exhibited immune cell delivery potentiating ability in T cells
2,CCCCCCCCCCCOC(=O)CCCCCN(CCCCCCCC(=O)OC(CCCCCCCC)CCCCCCCC)CCCNc1c(NC)c(=O)c1=O [Compound I-317],exhibited immune cell delivery potentiating ability in T cells
3,CCCCCCCCCOC(=O)CCCCCCCN(CCCCCCCC(=O)OC(CCCCCCCC)CCCCCCCC)CCCCNc1c(NC)c(=O)c1=O [Compound I-351],exhibited immune cell delivery potentiating ability in T cells
4,CCCCCCCCC(CC)OC(=O)CCCCCCCN(CCCCCCCC(=O)OC(CCCCCCCC)CCCCCCCC)CCCCNc1c(NC)c(=O)c1=O (stereo not shown) [Compound I-352],exhibited immune cell delivery potentiating ability in T cells
5,CCCCCCCCCC(=O)OCCCCCCCN(CCCCCCCC(=O)OC(CCCCCCCC)CCCCCCCC)CCCNc1c(NC)c(=O)c1=O [Compound I-309],exhibited immune cell delivery potentiating ability in T cells
6,CCCCCCCCC(C)OC(=O)CCCCCCCN(CCCCCCCC(=O)OC(CCCCCCCC)CCCCCCCC)CCCNc1c(NC)c(=O)c1=O (stereo not shown) [Compound I-347],exhibited immune cell delivery potentiating ability in T cells
7,CCCCCCCCC(CCC)OC(=O)CCCCCCCN(CCCCCCCC(=O)OC(CCCCCCCC)CCCCCCCC)CCCNc1c(NC)c(=O)c1=O (stereo not shown) [Compound I-348],exhibited immune cell delivery potentiating ability in T cells
8,CCCCCCCCC(C)OC(=O)CCCCCN(CCCCCCCC(=O)OC(CCCCCCCC)CCCCCCCC)CCCNc1c(NC)c(=O)c1=O (stereo not shown) [Compound I-349],exhibited immune cell delivery potentiating ability in T cells

# Same assay, conditions: phospholipid component, FIG. 45
row,SMILES,"immune cell delivery potentiating ability in T cells, helper lipid panel"
1,"CCCCCCCCCCCCCC(=O)OC[C@H](COP(=O)([O-])OCC[N+](C)(C)C)OC(=O)CCCCCCCCCCCCC [DMPC, 1,2-dimyristoyl-sn-glycero-phosphocholine, reference compound]",exhibited immune cell delivery potentiating ability in T cells
2,"CCCCCCCCCCCCCCCC(=O)OC[C@H](COP(=O)([O-])OCC[N+](C)(C)C)OC(=O)CCCCCCCCCCCCCCC [DPPC, 1,2-dipalmitoyl-sn-glycero-3-phosphocholine, reference compound]",exhibited immune cell delivery potentiating ability in T cells

# Same assay, conditions: structural component, FIG. 44
row,SMILES,"immune cell delivery potentiating ability in T cells, sterol panel"
1,"CC(C)[C@H](C)CC[C@@H](C)[C@H]1CC[C@H]2[C@@H]3CC=C4C[C@@H](O)CC[C@]4(C)[C@H]3CC[C@]12C [Compound S-143, campesterol]",exhibited immune cell delivery potentiating ability in T cells
2,CCC(/C=C/[C@@H](C)[C@H]1CC[C@H]2[C@@H]3CC=C4C[C@@H](O)CC[C@]4(C)[C@H]3CC[C@]12C)CC [Compound 5-160],exhibited immune cell delivery potentiating ability in T cells
3,CC(C)[C@H](C)CC[C@@H](C)[C@H]1CC[C@H]2[C@@H]3CC[C@H]4C[C@@H](O)CC[C@]4(C)[C@H]3CC[C@]12C [Compound 5-159],exhibited immune cell delivery potentiating ability in T cells
4,"CC(C)[C@@H](C)/C=C/[C@@H](C)[C@H]1CC[C@H]2[C@@H]3CC=C4C[C@@H](O)CC[C@]4(C)[C@H]3CC[C@]12C [Compound S-148, brassicasterol]",exhibited immune cell delivery potentiating ability in T cells
5,CC(C)C(CC[C@@H](C)[C@H]1CC[C@H]2[C@@H]3CC[C@H]4C[C@@H](O)CC[C@]4(C)[C@H]3CC[C@]12C)C(C)C [Compound 5-173],exhibited immune cell delivery potentiating ability in T cells
6,CCC(/C=C/[C@@H](C)[C@H]1CC[C@H]2[C@@H]3CC=C4C[C@@H](O)CC[C@]4(C)[C@H]3CC[C@]12C)(CC)CC [Compound 5-166],exhibited immune cell delivery potentiating ability in T cells
7,"CC[C@H](CC[C@@H](C)[C@H]1CC[C@H]2[C@@H]3CC[C@H]4C[C@@H](O)CC[C@]4(C)[C@H]3CC[C@]12C)C(C)C [Compound S-144, β-sitostanol]",exhibited immune cell delivery potentiating ability in T cells
8,CC(C)C(/C=C/[C@@H](C)[C@H]1CC[C@H]2[C@@H]3CC=C4C[C@@H](O)CC[C@]4(C)[C@H]3CC[C@]12C)C(C)C [Compound 5-167],exhibited immune cell delivery potentiating ability in T cells
9,CC[C@H](/C=C/[C@@H](C)[C@H]1CC[C@H]2[C@@H]3CC=C4C[C@@H](O)CC[C@]4(C)[C@H]3CC[C@]12C)C(C)C [Compound S-140],exhibited immune cell delivery potentiating ability in T cells
10,CC(C)[C@@H](C)CC[C@@H](C)[C@H]1CC[C@H]2[C@@H]3CC[C@H]4C[C@@H](O)CC[C@]4(C)[C@H]3CC[C@]12C [Compound S-151],exhibited immune cell delivery potentiating ability in T cells

# Same assay, conditions: third series, against Compound I-18 formulations, FIG. 47
row,SMILES,"immune cell delivery potentiating ability in T cells, other ionizable lipids"
1,"CCCCCCCCCCC(O)CN(CCCCC1NC(=O)C(CCCCN(CC(O)CCCCCCCCCC)CC(O)CCCCCCCCCC)NC1=O)CC(O)CCCCCCCCCC (stereo not shown) [CKK-E12, reference compound]",exhibited immune cell delivery potentiating ability in T cells
2,"CCCCCC=CCC=CCCCCCCCCC(CCCCCCCCC=CCC=CCCCCC)OC(=O)CCCN(C)C (stereo not shown) [MC3, heptatriaconta-6,9,28,31-tetraen-19-yl 4-(dimethylamino)butanoate, reference compound]",exhibited immune cell delivery potentiating ability in T cells
